What was measured:
Format in all cases: cell-based
[1] = test system: Listeria species; experiment: Experiment 3: differentiation of Listeria species in liquid medium
Description: (§1) In Table 1 above, as in the following Tables, C represents the color of the colonies after incubation, I represents the intensity of the color, and the symbol “-” corresponds to the absence of color or intensity; finally, IT defines the incubation time. It should be noted that the intensity of the color is scored on an arbitrary scale but one which is consistent for all the biological specimens and media tested. This scale is valid for this experiment as well as all those that follow. It can be defined in the following way: • 0 corresponds to no activity, • 0.1 corresponds to a trace of color, • 0.5 corresponds to very pale coloration, • 1 corresponds to clear but low-intensity coloration, • 1.5 corresponds to a degree of coloration intermediate between scores 1 and 2, • 2 corresponds to clear coloration of moderate intensity, • 2.5 corresponds to a degree of coloration intermediate between scores 2 and 3, • 3 corresponds to intense coloration, • 3.5 corresponds to a degree of coloration intermediate between scores 3 and 4, • 4 corresponds to very intense coloration.
These substrates were lyophilized in the wells of API-type strips (Registered Trademark). Before use, the substrates contained in the wells were resuspended in an agar-free Columbia-type inoculation medium. […]
(§2) The intensity of the color of the colonies was recorded.

[2] = test system: Listeria monocytogenes ATCC 19115; experiment: Experiment 3: detecting an esterase activity in liquid medium (API-type strips); set-up: key: —: the symbol “-” corresponds to the absence of color or intensity; 0 corresponds to no activity; 0.1 corresponds to a trace of color; 0.5 corresponds to very pale coloration; 1 corresponds to clear but low-intensity coloration; 1.5 corresponds to a degree of coloration intermediate between scores 1 and 2; 2 corresponds to clear coloration of moderate intensity; 2.5 corresponds to a degree of coloration intermediate between scores 2 and 3; 3 corresponds to intense coloration; 3.5 corresponds to a degree of coloration intermediate between scores 3 and 4; 4 corresponds to very intense coloration; details: 37° C.
Description: as §1
(§3) These substrates were lyophilized in the wells of API-type strips (Registered Trademark). Before use, the substrates contained in the wells were resuspended in an agar-free Columbia-type inoculation medium. These wells were then inoculated with a suspension (density=2 McFarland) of microorganisms taken from either the Applicant's own collection or the ATCC. The strips were incubated for 8 hours at 37° C. The colonies which grew were examined by eye after 4, 6 and 8 hours of incubation.
as §2

[3] = test system: Listeria seeligeri 011; experiment: as above; set-up: key: —: the symbol “-” corresponds to the absence of color or intensity; 0 corresponds to no activity; 0.1 corresponds to a trace of color; 0.5 corresponds to very pale coloration; 1 corresponds to clear but low-intensity coloration; 1.5 corresponds to a degree of coloration intermediate between scores 1 and 2; 2 corresponds to clear coloration of moderate intensity; 2.5 corresponds to a degree of coloration intermediate between scores 2 and 3; 3 corresponds to intense coloration; 3.5 corresponds to a degree of coloration intermediate between scores 3 and 4; 4 corresponds to very intense coloration; details: 37° C.
Description: as §1, §3, §2

[4] = test system: Listeria ivanovii 018; experiment: as above; set-up: key: —: the symbol “-” corresponds to the absence of color or intensity; 0 corresponds to no activity; 0.1 corresponds to a trace of color; 0.5 corresponds to very pale coloration; 1 corresponds to clear but low-intensity coloration; 1.5 corresponds to a degree of coloration intermediate between scores 1 and 2; 2 corresponds to clear coloration of moderate intensity; 2.5 corresponds to a degree of coloration intermediate between scores 2 and 3; 3 corresponds to intense coloration; 3.5 corresponds to a degree of coloration intermediate between scores 3 and 4; 4 corresponds to very intense coloration; details: 37° C.
Description: as §1, §3, §2

[5] = test system: Listeria grayi ATCC 19120; experiment: as above; set-up: key: —: the symbol “-” corresponds to the absence of color or intensity; 0 corresponds to no activity; 0.1 corresponds to a trace of color; 0.5 corresponds to very pale coloration; 1 corresponds to clear but low-intensity coloration; 1.5 corresponds to a degree of coloration intermediate between scores 1 and 2; 2 corresponds to clear coloration of moderate intensity; 2.5 corresponds to a degree of coloration intermediate between scores 2 and 3; 3 corresponds to intense coloration; 3.5 corresponds to a degree of coloration intermediate between scores 3 and 4; 4 corresponds to very intense coloration; details: 37° C.
Description: as §1, §3, §2

[6] = test system: Listeria welshimeri 023; experiment: as above; set-up: key: —: the symbol “-” corresponds to the absence of color or intensity; 0 corresponds to no activity; 0.1 corresponds to a trace of color; 0.5 corresponds to very pale coloration; 1 corresponds to clear but low-intensity coloration; 1.5 corresponds to a degree of coloration intermediate between scores 1 and 2; 2 corresponds to clear coloration of moderate intensity; 2.5 corresponds to a degree of coloration intermediate between scores 2 and 3; 3 corresponds to intense coloration; 3.5 corresponds to a degree of coloration intermediate between scores 3 and 4; 4 corresponds to very intense coloration; details: 37° C.
Description: as §1, §3, §2

[7] = test system: Listeria innocua 166; experiment: as above; set-up: key: —: the symbol “-” corresponds to the absence of color or intensity; 0 corresponds to no activity; 0.1 corresponds to a trace of color; 0.5 corresponds to very pale coloration; 1 corresponds to clear but low-intensity coloration; 1.5 corresponds to a degree of coloration intermediate between scores 1 and 2; 2 corresponds to clear coloration of moderate intensity; 2.5 corresponds to a degree of coloration intermediate between scores 2 and 3; 3 corresponds to intense coloration; 3.5 corresponds to a degree of coloration intermediate between scores 3 and 4; 4 corresponds to very intense coloration; details: 37° C.
Description: as §1, §3, §2

[8] = test system: Listeria monocytogenes 092; experiment: as above; set-up: key: —: the symbol “-” corresponds to the absence of color or intensity; 0 corresponds to no activity; 0.1 corresponds to a trace of color; 0.5 corresponds to very pale coloration; 1 corresponds to clear but low-intensity coloration; 1.5 corresponds to a degree of coloration intermediate between scores 1 and 2; 2 corresponds to clear coloration of moderate intensity; 2.5 corresponds to a degree of coloration intermediate between scores 2 and 3; 3 corresponds to intense coloration; 3.5 corresponds to a degree of coloration intermediate between scores 3 and 4; 4 corresponds to very intense coloration; details: 37° C.
Description: as §1, §3, §2

[9] = test system: Listeria innocua 171; experiment: as above; set-up: key: —: the symbol “-” corresponds to the absence of color or intensity; 0 corresponds to no activity; 0.1 corresponds to a trace of color; 0.5 corresponds to very pale coloration; 1 corresponds to clear but low-intensity coloration; 1.5 corresponds to a degree of coloration intermediate between scores 1 and 2; 2 corresponds to clear coloration of moderate intensity; 2.5 corresponds to a degree of coloration intermediate between scores 2 and 3; 3 corresponds to intense coloration; 3.5 corresponds to a degree of coloration intermediate between scores 3 and 4; 4 corresponds to very intense coloration; details: 37° C.
Description: as §1, §3, §2

[10] = test system: Listeria monocytogenes, Listeria innocua and Listeria ivanovii; experiment: Experiment 4: comparison of Listeria strains with pairs of substrates; details: for results as saccharidase substrate paired with an esterase substrate: Experiment 4, semi-solid medium
Description: as §1
A stock solution of each esterase substrate at a concentration of 40 g/l was made up in a mixture of 40% Dimethylsulfoxide and 60% Tween 20. And a stock solution of each saccharidase substrate was made up in Dimethylsulfoxide. An appropriate volume of the stock solution of the esterase substrate corresponding to each of the pairs described above was added to one of eight Columbia-type media while cooling to obtain a final substrate concentration of 250 mg/l. In parallel, an appropriate volume of the stock solution of the saccharidase substrate corresponding to each of the pairs described above was added to each of the eight media in order to obtain a final concentration of between 100 and 200 mg/l (depending on the substrate). These dishes were divided into three areas and then each area was inoculated with a suspension (density=0.5 McFarland) of microorganisms taken from either the Applicant's own collection or the ATCC. The dishes were incubated for 48 hours at 37° C. The colonies which grew were examined by eye after 24 and 48 hours of incubation.
Both the color and the intensity of the color of the colonies were recorded.

CCCC(=O)Oc1c[nH]c2ccc(Br)c(Cl)c12 [X-C4, 5-Bromo-4-chloro-3-indolyl butyrate]
differentiation between L. monocytogenes and other species belonging to the same genus [1]: gave a contrast in color
I (intensity of the color) ([2]; IT 4 h): 1
I (intensity of the color) ([2]; IT 6 h): 2
I (intensity of the color) ([2]; IT 8 h): 3
I (intensity of the color) ([3]; IT 4 h): 0.5
I (intensity of the color) ([3]; IT 6 h): 1
I (intensity of the color) ([3]; IT 8 h): 2
I (intensity of the color) ([4]; IT 4 h): 0.5
I (intensity of the color) ([4]; IT 6 h): 1
I (intensity of the color) ([4]; IT 8 h): 2
I (intensity of the color) ([5]; IT 4 h): 0.5
I (intensity of the color) ([5]; IT 6 h): 1
I (intensity of the color) ([5]; IT 8 h): 2
I (intensity of the color) ([6]; IT 4 h): 0.5
I (intensity of the color) ([6]; IT 6 h): 1
I (intensity of the color) ([6]; IT 8 h): 2
I (intensity of the color) ([7]; IT 4 h): 0.5
I (intensity of the color) ([7]; IT 6 h): 1
I (intensity of the color) ([7]; IT 8 h): 2
I (intensity of the color) ([8]; IT 4 h): 2
I (intensity of the color) ([8]; IT 6 h): 2
I (intensity of the color) ([8]; IT 8 h): 3
I (intensity of the color) ([9]; IT 4 h): 0.5
I (intensity of the color) ([9]; IT 6 h): 1
I (intensity of the color) ([9]; IT 8 h): 2

OC[C@H]1O[C@@H](Oc2c[nH]c3cc(Cl)ccc23)[C@H](O)[C@@H](O)[C@@H]1O [6-Chloro-3-indolyl-β-D-glucoside]
results as saccharidase substrate paired with an esterase substrate [10]: best results

CC(=O)Oc1c[nH]c2ccc(Br)c(Cl)c12 [X-C2, 5-Bromo-4-chloro-3-indolyl acetate]
I (intensity of the color) ([2]; IT 4 h): 3
I (intensity of the color) ([2]; IT 6 h): 4
I (intensity of the color) ([2]; IT 8 h): 4
I (intensity of the color) ([3]; IT 4 h): 3
I (intensity of the color) ([3]; IT 6 h): 3
I (intensity of the color) ([3]; IT 8 h): 4
I (intensity of the color) ([4]; IT 4 h): 3
I (intensity of the color) ([4]; IT 6 h): 3
I (intensity of the color) ([4]; IT 8 h): 4
I (intensity of the color) ([5]; IT 4 h): 2
I (intensity of the color) ([5]; IT 6 h): 2
I (intensity of the color) ([5]; IT 8 h): 3
I (intensity of the color) ([6]; IT 4 h): 3
I (intensity of the color) ([6]; IT 6 h): 4
I (intensity of the color) ([6]; IT 8 h): 4
I (intensity of the color) ([7]; IT 4 h): 3
I (intensity of the color) ([7]; IT 6 h): 4
I (intensity of the color) ([7]; IT 8 h): 4
I (intensity of the color) ([8]; IT 4 h): 3
I (intensity of the color) ([8]; IT 6 h): 4
I (intensity of the color) ([8]; IT 8 h): 4
I (intensity of the color) ([9]; IT 4 h): 4
I (intensity of the color) ([9]; IT 6 h): 4
I (intensity of the color) ([9]; IT 8 h): 4

OC[C@H]1O[C@H](Oc2c[nH]c3cc(Cl)ccc23)[C@@H](O)[C@@H](O)[C@@H]1O [6-Chloro-3-indolyl-α-D-mannoside]
results as saccharidase substrate paired with an esterase substrate [10]: best results

CC(=O)Oc1c[nH]c2ccccc12 [Y-C2, 3-Indolyl acetate]
I (intensity of the color) ([2]; IT 4 h): 3
I (intensity of the color) ([2]; IT 6 h): 4
I (intensity of the color) ([2]; IT 8 h): 4
I (intensity of the color) ([3]; IT 4 h): 3
I (intensity of the color) ([3]; IT 6 h): 3
I (intensity of the color) ([3]; IT 8 h): 4
I (intensity of the color) ([4]; IT 4 h): 3
I (intensity of the color) ([4]; IT 6 h): 4
I (intensity of the color) ([4]; IT 8 h): 4
I (intensity of the color) ([5]; IT 4 h): 3
I (intensity of the color) ([5]; IT 6 h): 4
I (intensity of the color) ([5]; IT 8 h): 4
I (intensity of the color) ([6]; IT 4 h): 3
I (intensity of the color) ([6]; IT 6 h): 4
I (intensity of the color) ([6]; IT 8 h): 4
I (intensity of the color) ([7]; IT 4 h): 3
I (intensity of the color) ([7]; IT 6 h): 3
I (intensity of the color) ([7]; IT 8 h): 4
I (intensity of the color) ([8]; IT 4 h): 4
I (intensity of the color) ([8]; IT 6 h): 4
I (intensity of the color) ([8]; IT 8 h): 4
I (intensity of the color) ([9]; IT 4 h): 3
I (intensity of the color) ([9]; IT 6 h): 3
I (intensity of the color) ([9]; IT 8 h): 4

CCCCCCCCC(=O)Oc1c[nH]c2ccc(Br)c(Cl)c12 [5-Bromo-4-chloro-3-indolyl nonanoate]
contrast ([10]; together with a saccharidase substrate based on 6-Chloro-3-indolyl, whatever the target activity): best contrast

CC(=O)N[C@H]1[C@H](Oc2c[nH]c3cc(Cl)ccc23)O[C@H](CO)[C@@H](O)[C@@H]1O [6-Chloro-3-indolyl-N-acetyl-β-D-glucosaminide]
results as saccharidase substrate paired with an esterase substrate [10]: best results
